# Key:
# Experiment in all cases: relative viability (nuclei count vs DMSO), 5 days (fraction); higher = more cells survive
# [1] = test system: BEN
# Procedure, shortened: (§1)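 Lung cancer cell lines were seeded in 1536-well plates and dosed by pin tool the next day, with either a single drug or a fixed anchor-drug dose combined with five library-drug doses (not always all listed) spaced in √10 steps. Five days later, one step fixed the cells and stained their nuclei (final 0.05% Triton X-100, 1% formaldehyde, 1 ug/ml Hoechst), and nuclei were counted on 4× images. Relative viability is the nuclei count in treated wells divided by the count in vehicle wells, and each value is the median of duplicate plates.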
# [2] = test system: NCI-H1395
# Procedure, shortened: as §1
# [3] = test system: HCC-366
# Procedure, shortened: as §1
# [4] = test system: HARA
# Procedure, shortened: as §1
# [5] = test system: NCI-H2087
# Procedure, shortened: as §1
# [6] = test system: NCI-H2170
# Procedure, shortened: as §1
# [7] = test system: NCI-H2009
# Procedure, shortened: as §1
# [8] = test system: SK-LU-1
# Procedure, shortened: as §1
# [9] = test system: NCI-H2405
# Procedure, shortened: as §1
# [10] = test system: SK-MES-1
# Procedure, shortened: as §1
# [11] = test system: NCI-H661
# Procedure, shortened: as §1
# [12] = test system: NCI-H2342
# Procedure, shortened: as §1
# [13] = test system: NCI-H1734
# Procedure, shortened: as §1
# [14] = test system: NCI-H1437
# Procedure, shortened: as §1
# [15] = test system: LOU-NH91
# Procedure, shortened: as §1
# [16] = test system: NCI-H522
# Procedure, shortened: as §1
# [17] = test system: NCI-H647
# Procedure, shortened: as §1
# [18] = test system: HCC-827
# Procedure, shortened: as §1
# [19] = test system: EKVX
# Procedure, shortened: as §1
# [20] = test system: NCI-H1993
# Procedure, shortened: as §1
# [21] = test system: NCI-H1355
# Procedure, shortened: as §1
compound,measurement,setting,value
CCN(CC)CCCCNc1ncc2cc(-c3cc(OC)cc(OC)c3)c(NC(=O)NC(C)(C)C)nc2n1 + O=C(CCCCCCC(=O)Nc1ccccc1)NO [Vorinostat] (partner 1 µM),relative viability,[1]; first compound 0.01 µM,0.617
same,relative viability,[1]; first compound 0.03162 µM,0.547
same,relative viability,[1]; first compound 0.1 µM,0.579
same,relative viability,[1]; first compound 0.3162 µM,0.544
same,relative viability,[1]; first compound 1 µM,0.546
same,relative viability,[2]; first compound 0.01 µM,0.648
same,relative viability,[2]; first compound 0.03162 µM,0.786
same,relative viability,[2]; first compound 0.1 µM,0.714
same,relative viability,[2]; first compound 0.3162 µM,0.742
same,relative viability,[2]; first compound 1 µM,0.513
same,relative viability,[3]; first compound 0.01 µM,0.414
same,relative viability,[3]; first compound 0.03162 µM,0.369
same,relative viability,[3]; first compound 0.1 µM,0.423
same,relative viability,[3]; first compound 0.3162 µM,0.383
same,relative viability,[3]; first compound 1 µM,0.288
same,relative viability,[4]; first compound 0.01 µM,0.406
same,relative viability,[4]; first compound 0.03162 µM,0.483
same,relative viability,[4]; first compound 0.1 µM,0.528
same,relative viability,[4]; first compound 0.3162 µM,0.51
same,relative viability,[4]; first compound 1 µM,0.365
same,relative viability,[5]; first compound 0.01 µM,0.669
same,relative viability,[5]; first compound 0.03162 µM,0.71
same,relative viability,[5]; first compound 0.1 µM,0.893
same,relative viability,[5]; first compound 0.3162 µM,0.886
same,relative viability,[5]; first compound 1 µM,0.514
same,relative viability,[6]; first compound 0.01 µM,0.782
same,relative viability,[6]; first compound 0.03162 µM,0.92
same,relative viability,[6]; first compound 0.1 µM,0.983
same,relative viability,[6]; first compound 0.3162 µM,0.969
same,relative viability,[6]; first compound 1 µM,0.776
same,relative viability,[7]; first compound 0.01 µM,0.731
same,relative viability,[7]; first compound 0.03162 µM,0.749
same,relative viability,[7]; first compound 0.1 µM,0.78
same,relative viability,[7]; first compound 0.3162 µM,0.78
same,relative viability,[7]; first compound 1 µM,0.624
same,relative viability,[8]; first compound 0.01 µM,0.922
same,relative viability,[8]; first compound 0.03162 µM,0.795
same,relative viability,[8]; first compound 0.1 µM,0.782
same,relative viability,[8]; first compound 0.3162 µM,0.973
same,relative viability,[8]; first compound 1 µM,0.67
same,relative viability,[9]; first compound 0.01 µM,0.795
same,relative viability,[9]; first compound 0.03162 µM,1.03
same,relative viability,[9]; first compound 0.1 µM,1.08
same,relative viability,[9]; first compound 0.3162 µM,1.22
same,relative viability,[9]; first compound 1 µM,0.94
same,relative viability,[10]; first compound 0.01 µM,1.15
same,relative viability,[10]; first compound 0.03162 µM,1.17
same,relative viability,[10]; first compound 0.1 µM,1.22
same,relative viability,[10]; first compound 0.3162 µM,1.52
same,relative viability,[10]; first compound 1 µM,1.19
same,relative viability,[11]; first compound 0.01 µM,0.781
same,relative viability,[11]; first compound 0.03162 µM,0.757
same,relative viability,[11]; first compound 0.1 µM,0.856
same,relative viability,[11]; first compound 0.3162 µM,0.839
same,relative viability,[11]; first compound 1 µM,0.741
same,relative viability,[12]; first compound 0.01 µM,0.699
same,relative viability,[12]; first compound 0.03162 µM,0.716
same,relative viability,[12]; first compound 0.1 µM,0.796
same,relative viability,[12]; first compound 0.3162 µM,0.708
same,relative viability,[12]; first compound 1 µM,0.875
same,relative viability,[13]; first compound 0.01 µM,0.849
same,relative viability,[13]; first compound 0.03162 µM,0.874
same,relative viability,[13]; first compound 0.1 µM,0.974
same,relative viability,[13]; first compound 0.3162 µM,0.864
same,relative viability,[13]; first compound 1 µM,0.757
same,relative viability,[14]; first compound 0.01 µM,0.88
same,relative viability,[14]; first compound 0.03162 µM,0.821
same,relative viability,[14]; first compound 0.1 µM,0.827
same,relative viability,[14]; first compound 0.3162 µM,0.948
same,relative viability,[14]; first compound 1 µM,0.82
same,relative viability,[15]; first compound 0.01 µM,0.868
same,relative viability,[15]; first compound 0.03162 µM,0.99
same,relative viability,[15]; first compound 0.1 µM,1.04
same,relative viability,[15]; first compound 0.3162 µM,1.08
same,relative viability,[15]; first compound 1 µM,0.901
same,relative viability,[16]; first compound 0.01 µM,0.891
same,relative viability,[16]; first compound 0.03162 µM,0.835
same,relative viability,[16]; first compound 0.1 µM,1.19
same,relative viability,[16]; first compound 0.3162 µM,0.948
same,relative viability,[16]; first compound 1 µM,0.962
same,relative viability,[17]; first compound 0.01 µM,0.525
same,relative viability,[17]; first compound 0.03162 µM,0.645
same,relative viability,[17]; first compound 0.1 µM,0.582
same,relative viability,[17]; first compound 0.3162 µM,0.511
same,relative viability,[17]; first compound 1 µM,0.491
same,relative viability,[18]; first compound 0.01 µM,0.883
same,relative viability,[18]; first compound 0.03162 µM,0.969
same,relative viability,[18]; first compound 0.1 µM,0.866
same,relative viability,[18]; first compound 0.3162 µM,0.937
same,relative viability,[18]; first compound 1 µM,0.674
same,relative viability,[19]; first compound 0.01 µM,0.814
same,relative viability,[19]; first compound 0.03162 µM,0.734
same,relative viability,[19]; first compound 0.1 µM,0.731
same,relative viability,[19]; first compound 0.3162 µM,0.704
same,relative viability,[19]; first compound 1 µM,0.621
same,relative viability,[20]; first compound 0.01 µM,0.776
same,relative viability,[20]; first compound 0.03162 µM,0.726
same,relative viability,[20]; first compound 0.1 µM,0.899
same,relative viability,[20]; first compound 0.3162 µM,0.882
same,relative viability,[20]; first compound 1 µM,0.695
same,relative viability,[21]; first compound 0.01 µM,0.647
same,relative viability,[21]; first compound 0.03162 µM,0.654
same,relative viability,[21]; first compound 0.1 µM,0.67
same,relative viability,[21]; first compound 0.3162 µM,0.657
same,relative viability,[21]; first compound 1 µM,0.616
COc1nc(C)cnc1NS(=O)(=O)c1cccnc1-c1ccc(-c2nnco2)cc1 [Zibotentan] + COc1cc2c(Oc3ccc(NC(=O)C4(C(=O)Nc5ccc(F)cc5)CC4)cc3F)ccnc2cc1OCCCN1CCOCC1 [Foretinib] (partner 0.25 µM),relative viability,[1]; first compound 0.08 µM,0.739
same,relative viability,[1]; first compound 0.253 µM,0.475
same,relative viability,[1]; first compound 0.8 µM,0.819
same,relative viability,[1]; first compound 2.53 µM,0.639
same,relative viability,[2]; first compound 0.08 µM,1.02
same,relative viability,[2]; first compound 0.253 µM,1.07
same,relative viability,[2]; first compound 0.8 µM,1.04
same,relative viability,[2]; first compound 2.53 µM,0.941
same,relative viability,[3]; first compound 0.08 µM,0.977
same,relative viability,[3]; first compound 0.253 µM,0.903
same,relative viability,[3]; first compound 0.8 µM,0.964
same,relative viability,[3]; first compound 2.53 µM,0.976
same,relative viability,[4]; first compound 0.08 µM,1
same,relative viability,[4]; first compound 0.253 µM,0.743
same,relative viability,[4]; first compound 0.8 µM,0.883
same,relative viability,[4]; first compound 2.53 µM,0.874
same,relative viability,[5]; first compound 0.08 µM,1.22
same,relative viability,[5]; first compound 0.253 µM,1.04
same,relative viability,[5]; first compound 0.8 µM,1.16
same,relative viability,[5]; first compound 2.53 µM,1.04
same,relative viability,[6]; first compound 0.08 µM,1.05
same,relative viability,[6]; first compound 0.253 µM,1.07
same,relative viability,[6]; first compound 0.8 µM,1.03
same,relative viability,[6]; first compound 2.53 µM,0.969
same,relative viability,[7]; first compound 0.08 µM,1.25
same,relative viability,[7]; first compound 0.253 µM,1.24
same,relative viability,[7]; first compound 0.8 µM,1.28
same,relative viability,[7]; first compound 2.53 µM,1.35
same,relative viability,[8]; first compound 0.08 µM,0.842
same,relative viability,[8]; first compound 0.253 µM,0.873
same,relative viability,[8]; first compound 0.8 µM,0.855
same,relative viability,[8]; first compound 2.53 µM,0.827
same,relative viability,[9]; first compound 0.08 µM,1.1
same,relative viability,[9]; first compound 0.253 µM,1.02
same,relative viability,[9]; first compound 0.8 µM,1.04
same,relative viability,[9]; first compound 2.53 µM,1.05
same,relative viability,[10]; first compound 0.08 µM,0.974
same,relative viability,[10]; first compound 0.253 µM,0.886
same,relative viability,[10]; first compound 0.8 µM,0.974
same,relative viability,[10]; first compound 2.53 µM,1.02
same,relative viability,[11]; first compound 0.08 µM,1.01
same,relative viability,[11]; first compound 0.253 µM,0.969
same,relative viability,[11]; first compound 0.8 µM,0.995
same,relative viability,[11]; first compound 2.53 µM,1.01
same,relative viability,[12]; first compound 0.08 µM,1.08
same,relative viability,[12]; first compound 0.253 µM,0.954
same,relative viability,[12]; first compound 0.8 µM,1.03
same,relative viability,[12]; first compound 2.53 µM,1.13
same,relative viability,[13]; first compound 0.08 µM,0.875
same,relative viability,[13]; first compound 0.253 µM,0.773
same,relative viability,[13]; first compound 0.8 µM,0.883
same,relative viability,[13]; first compound 2.53 µM,0.812
same,relative viability,[14]; first compound 0.08 µM,1.27
same,relative viability,[14]; first compound 0.253 µM,1.18
same,relative viability,[14]; first compound 0.8 µM,1.26
same,relative viability,[14]; first compound 2.53 µM,1.26
same,relative viability,[15]; first compound 0.08 µM,0.903
same,relative viability,[15]; first compound 0.253 µM,0.841
same,relative viability,[15]; first compound 0.8 µM,0.969
same,relative viability,[15]; first compound 2.53 µM,0.888
same,relative viability,[17]; first compound 0.08 µM,1.13
same,relative viability,[17]; first compound 0.253 µM,0.996
same,relative viability,[17]; first compound 0.8 µM,1.06
same,relative viability,[17]; first compound 2.53 µM,1.29
same,relative viability,[18]; first compound 0.08 µM,1.06
same,relative viability,[18]; first compound 0.253 µM,1.01
same,relative viability,[18]; first compound 0.8 µM,1.11
same,relative viability,[18]; first compound 2.53 µM,1.09
same,relative viability,[19]; first compound 0.08 µM,0.892
same,relative viability,[19]; first compound 0.253 µM,0.762
same,relative viability,[19]; first compound 0.8 µM,1.11
same,relative viability,[19]; first compound 2.53 µM,0.875
same,relative viability,[20]; first compound 0.08 µM,0.753
same,relative viability,[20]; first compound 0.253 µM,0.811
same,relative viability,[20]; first compound 0.8 µM,0.702
same,relative viability,[20]; first compound 2.53 µM,0.832
same,relative viability,[21]; first compound 0.08 µM,0.988
same,relative viability,[21]; first compound 0.253 µM,1.02
same,relative viability,[21]; first compound 0.8 µM,0.955
same,relative viability,[21]; first compound 2.53 µM,0.927

# Source: the supplement of paper PMC10307832
